What is called IC50 is the point on the concentration scale where inhibition reaches its midpoint. Higher therefore signals lower potency.

In the assay the target is T1, dihydrolipoamide acyltransferase (DlaT) (Mycobacterium tuberculosis, UniProt P9WIS7).
T1 sequence (P9WIS7 1-553): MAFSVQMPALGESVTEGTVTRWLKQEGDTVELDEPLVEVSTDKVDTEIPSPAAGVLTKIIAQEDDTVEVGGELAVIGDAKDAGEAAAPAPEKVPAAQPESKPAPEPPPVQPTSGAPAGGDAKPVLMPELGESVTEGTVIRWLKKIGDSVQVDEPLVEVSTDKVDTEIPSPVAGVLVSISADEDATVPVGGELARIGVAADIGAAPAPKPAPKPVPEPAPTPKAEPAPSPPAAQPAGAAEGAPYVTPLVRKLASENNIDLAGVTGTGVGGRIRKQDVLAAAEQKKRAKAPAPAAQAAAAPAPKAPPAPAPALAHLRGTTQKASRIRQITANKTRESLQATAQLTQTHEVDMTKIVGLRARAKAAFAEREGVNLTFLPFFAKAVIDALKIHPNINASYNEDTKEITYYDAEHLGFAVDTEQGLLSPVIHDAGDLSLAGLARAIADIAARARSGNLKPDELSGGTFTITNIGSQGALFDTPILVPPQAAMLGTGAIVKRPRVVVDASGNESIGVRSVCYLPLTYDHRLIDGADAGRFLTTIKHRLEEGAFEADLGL
Briefly: DlaT inhibition (Dlat IC50); DTNB peroxidase assay with Lpd, DlaT and AhpD. It is filed as biochemical. The conditions noted are these: Dlat IC50 category.
Regarding `Cc1ccc(-c2ccc(C=C3SC(=S)N(C4CCCC(C(=O)O)C4)C3=O)o2)cc1` (centres unmarked) [Compound C14, 3-{4-oxo-2-thioxo-5-[1-(5-p-tolyl-furan-2-yl)-methylidene]-thiazolidin-3-yl}-cyclohexanecarboxylic acid], the half-inhibitory concentration (IC50) was < 10 µM. For `COc1ccc(-c2ccc(C=C3SC(=S)N(C4CCCC(C(=O)O)C4)C3=O)o2)cc1` (centres unmarked) [Compound C15, 3-{5-[1-[5-(4-methoxy-phenyl)-furan-2-yl]-methylidene]-4-oxo-2-thioxo-thiazolidin-3-yl}-cyclohexanecarboxylic acid] the value was < 10 µM. The value for `O=C(O)C1CCC(N2C(=O)C(=Cc3ccc(-c4ccccc4Cl)o3)SC2=S)CC1` (centres unmarked) [Compound C16, 4-{5-[1-[5-(2-chloro-phenyl)-furan-2-yl]-methylidene]-4-oxo-2-thioxo-thiazolidin-3-yl}-cyclohexanecarboxylic acid] was < 10 µM; that for `O=C(O)C1CCC(N2C(=O)C(=Cc3ccc(-c4cccc(C(F)(F)F)c4)o3)SC2=S)CC1` (centres unmarked) [Compound C17, 4-{5-[1-[5-(3-trifluoromethyl-phenyl)-furan-2-yl]-methylidene]-4-oxo-2-thioxo-thiazolidin-3-yl}-cyclohexanecarboxylic acid] was < 10 µM.

With `O=C(O)C1CCC(N2C(=O)C(=Cc3ccc(-c4ccc(Cl)cc4)o3)SC2=S)CC1` (centres unmarked) [Compound C18, 4-{5-[1-[5-(4-chloro-phenyl)-furan-2-yl]-methylidene]-4-oxo-2-thioxo-thiazolidin-3-yl}-cyclohexanecarboxylic acid], the IC50 is < 10 µM. For the compound `COc1ccc(-c2ccc(C=C3SC(=S)N(C4CCCC(C(=O)O)C4)C3=O)o2)c(OC)c1` (centres unmarked) [Compound C19, 3-{5-[1-[5-(2,4-dimethoxy-phenyl)-furan-2-yl]-methylidene]-4-oxo-2-thioxo-thiazolidin-3-yl}-cyclohexanecarboxylic acid], the 50% inhibitory concentration (IC50) was < 10 µM.

With `Cc1cc(Cl)ccc1-c1ccc(C=C2SC(=S)N(C3CCCC(C(=O)O)C3)C2=O)o1` (centres unmarked) [Compound C20, 3-{5-[1-[5-(4-chloro-2-methyl-phenyl)-furan-2-yl]-methylidene]-4-oxo-2-thioxo-thiazolidin-3-yl}-cyclohexanecarboxylic acid], the IC50 is < 10 µM. The compound `O=C1C(=Cc2ccc(-c3ccccc3Cl)o2)SC(=S)N1C1CCC(O)CC1` (centres unmarked) [Compound C21, 5-[1-[5-(2-chloro-phenyl)-furan-2-yl]-methylidene]-3-(4-hydroxy-cyclohexyl)-2-thioxo-thiazolidin-4-one] had an IC50 of 11 to 40 µM. For `O=C1C(=Cc2ccc(-c3ccc(Cl)cc3)o2)SC(=S)N1C1CCC(O)CC1` (centres unmarked) [Compound C22, 5-[1-[5-(4-chloro-phenyl)-furan-2-yl]-methylidene]-3-(4-hydroxy-cyclohexyl)-2-thioxo-thiazolidin-4-one] the value was 11 to 40 µM; for `Cc1cccc(C)c1-c1ccc(C=C2SC(=S)N(C3CCCC(C(=O)O)C3)C2=O)o1` (centres unmarked) [Compound C23, 3-{5-[5-(2,6-Dimethyl-phenyl)-furan-2-ylmethylene]-4-oxo-2-thioxo-thiazolidin-3-yl}-cyclohexanecarboxylic acid], 11 to 40 µM. The value for `Cc1ccccc1-c1cccc(C=C2SC(=S)N(C3CCCC(C(=O)O)C3)C2=O)c1` (centres unmarked) [Compound C24, 3-{5-[1-(2′-methyl-biphenyl-3-yl)-methylidene]-4-oxo-2-thioxo-thiazolidin-3-yl}cyclohexanecarboxylic acid] was 11 to 40 µM; that for `COc1cc(F)ccc1-c1ccc(C=C2SC(=S)N(C3CCCC(C(=O)O)C3)C2=O)o1` (centres unmarked) [Compound C25, 3-{5-[1-[5-(4-fluoro-2-methoxy-phenyl)-furan-2-yl]-methylidene]-4-oxo-2-thioxo-thiazolidin-3-yl}-cyclohexanecarboxylic acid] was < 10 µM. The value for `COc1ccc(-c2ccc(C=C3SC(=S)N(C4CCCC(C(=O)O)C4)C3=O)o2)cc1F` (centres unmarked) [Compound C26, 3-{5-[1-[5-(3-fluoro-4-methoxy-phenyl)-furan-2-yl]-methylidene]-4-oxo-2-thioxo-thiazolidin-3-yl}-cyclohexanecarboxylic acid] was < 10 µM. `O=C(O)C1CCCC(N2C(=O)C(=Cc3ccc(-c4ccccc4OCc4ccccc4)o3)SC2=S)C1` (centres unmarked) [Compound C27, 3-{5-[1-[5-(2-benzyloxy-phenyl)-furan-2-yl]-methylidene]-4-oxo-2-thioxo-thiazolidin-3-yl}-cyclohexanecarboxylic acid]: the IC50 is < 10 µM. The value for `Cc1cc(C)c(-c2ccc(C=C3SC(=S)N(C4CCCC(C(=O)O)C4)C3=O)o2)c(C)c1` (centres unmarked) [Compound C28, 3-{4-Oxo-2-thioxo-5-[5-(2,4,6-trimethyl-phenyl)-furan-2-ylmethylene]-thiazolidin-3-yl}-cyclohexanecarboxylic acid] was < 10 µM; that for `Cc1cc(N(C)C)ccc1-c1ccc(C=C2SC(=S)N(C3CCCC(C(=O)O)C3)C2=O)o1` (centres unmarked) [Compound C29, 3-{5-[5-(4-Dimethylamino-2-methyl-phenyl)-furan-2-ylmethylene]-4-oxo-2-thioxo-thiazolidin-3-yl}-cyclohexanecarboxylic acid] was 11 to 40 µM. As for `CSc1ccccc1-c1ccc(C=C2SC(=S)N(C3CCCC(C(=O)O)C3)C2=O)o1` (centres unmarked) [Compound C30, 3-{5-[1-[5-(2-methylsulfanyl-phenyl)-furan-2-yl]-methylidene]-4-oxo-2-thioxo-thiazolidin-3-yl}-cyclohexanecarboxylic acid], the IC50 is < 10 µM. In the case of `Cc1ccccc1-c1ccc(C=C2SC(=S)N(C3CCCC(C(=O)O)C3)C2=O)s1` (centres unmarked) [Compound C31, 3-{4-oxo-2-thioxo-5-[1-(5-o-tolyl-thiophen-2-yl)-methylidene]-thiazolidin-3-yl}-cyclohexanecarboxylic acid], the IC50 is 11 to 40 µM.

`O=C(O)C1CCCC(N2C(=O)C(=Cc3ccc(-c4ccccc4Cl)s3)SC2=S)C1` (centres unmarked) [Compound C32, 3-{4-oxo-2-thioxo-5-[1-(5-(2-chloro-phenyl)-thiophen-2-yl)-methylidene]-thiazolidin-3-yl}-cyclohexanecarboxylic acid]: the IC50 is < 10 µM.

Turning to `O=C(O)C1CCCC(N2C(=O)C(=Cc3ccccc3OCc3ccccc3Cl)SC2=S)C1` (centres unmarked) [Compound C33, 3-{5-[2-(2-Chloro-benzyloxy)-benzylidene]-4-oxo-2-thioxo-thiazolidin-3-yl}-cyclohexanecarboxylic acid], the concentration for half-maximal inhibition (IC50) lay within 11 to 40 µM. As to `O=C(O)C1CCCC(N2C(=O)C(=Cc3ccc(-c4ccccc4Oc4ccccc4)o3)SC2=S)C1` (centres unmarked) [Compound C34, 3-{4-oxo-5-[1-[5-(2-phenoxy-phenyl)-furan-2-yl]-methylidene]-2-thioxo-thiazolidin-3-yl}-cyclohexanecarboxylic acid], the IC50 was < 10 µM. For `O=C(O)C1CCCC(N2C(=O)C(=Cc3ccc(-c4ccccc4F)s3)SC2=S)C1` (centres unmarked) [Compound C35, 3-{5-[1-[5-(2-fluoro-phenyl)-thiophen-2-yl]-methylidene]-4-oxo-2-thioxo-thiazolidin-3-yl}-cyclohexanecarboxylic acid] the value was 11 to 40 µM; for `CCc1ccc(-c2ccc(C=C3SC(=S)N(C4CCCC(C(=O)O)C4)C3=O)o2)cc1` (centres unmarked) [Compound C36, 3-{5-[1-[5-(4-ethyl-phenyl)-furan-2-yl]-methylidene]-4-oxo-2-thioxo-thiazolidin-3-yl}-cyclohexanecarboxylic acid], < 10 µM. The value for `O=C(O)C1CCCC(N2C(=O)C(=Cc3ccc(-c4ccc(C(F)(F)F)cc4)o3)SC2=S)C1` (centres unmarked) [Compound C37, 3-{4-oxo-2-thioxo-5-[1-[5-(4-trifluoromethyl-phenyl)-furan-2-yl]-methylidene]-thiazolidin-3-yl}-cyclohexanecarboxylic acid] was < 10 µM; that for `O=C(O)C1CCCC(N2C(=O)C(=Cc3ccc(-c4cccc(-c5ccccc5)c4)o3)SC2=S)C1` (centres unmarked) [Compound C38, 3-{5-[1-(5-biphenyl-3-yl-furan-2-yl)-methylidene]-4-oxo-2-thioxo-thiazolidin-3-yl}-cyclohexanecarboxylic acid] was < 10 µM.

As to `CC(=O)Nc1ccc(-c2ccc(C=C3SC(=S)N(C4CCCC(C(=O)O)C4)C3=O)o2)cc1` (centres unmarked) [Compound C39, 3-{5-[5-(4-Acetylamino-phenyl)-furan-2-ylmethylene]-4-oxo-2-thioxo-thiazolidin-3-yl}-cyclohexanecarboxylic acid], the IC50 is < 10 µM.

For `CC(=O)c1ccc(-c2ccc(C=C3SC(=S)N(C4CCCC(C(=O)O)C4)C3=O)o2)cc1` (centres unmarked) [Compound C40, 3-{5-[1-[5-(4-acetyl-phenyl)-furan-2-yl]-methylidene]-4-oxo-2-thioxo-thiazolidin-3-yl}-cyclohexanecarboxylic acid], the IC50 is < 10 µM. The value for `O=C(O)C1CCCC(N2C(=O)C(=Cc3ccc(-c4ccccc4F)o3)SC2=S)C1` (centres unmarked) [Compound C41, 3-{5-[1-[5-(2-fluoro-phenyl)-furan-2-yl]-methylidene]-4-oxo-2-thioxo-thiazolidin-3-yl}-cyclohexanecarboxylic acid] was < 10 µM; that for `O=C(O)C1CCCC(N2C(=O)C(=Cc3ccc(-c4cccc(CO)c4)o3)SC2=S)C1` (centres unmarked) [Compound C42, 3-{5-[1-[5-(3-hydroxymethyl-phenyl)-furan-2-yl]-methylidene]-4-oxo-2-thioxo-thiazolidin-3-yl}-cyclohexanecarboxylic acid] was < 10 µM.
